In patent US5840893A, “Compounds for treating infectious diseases” (priority 1996, dated 1998):
Entries after “also recorded” stand apart in the source; their conditions may differ.

What was measured:
HIV-1ADA [1] = assay: RT activity in supernatant of HIV-1ADA-infected mitogen-stimulated peripheral blood leukocytes; type: cell-based, HIV-1ADA in human PBMC
Description: PBMCs were purified by Ficoll-Hypaque centrifugation and activated by 10 μg/ml PHA-P (Sigma) and 20 U/ml recombinant human IL-2 (rhIL-2) in RPMI 1640 supplemented with 10% FBS (HyClone). After 24 h incubation, cells were washed and inoculated with HIV-1ADA in RPMI 1640 supplemented with 10% FBS. After a 2 h adsorption, free virus was washed away and cells were cultured in RPMI 1640 supplemented with 10% FBS and 20 U/ml rhIL-2.
(§1) For the reverse transcriptase (RT) assay, 10 μl of culture supernatant was added to 40 μl of reaction mixture (final composition was 50 mM Tris-HCl, pH 7.8; 20 mM KCl; 5 mM MgCl2; 1 mM DTT; 0.1% Triton X-100; 0.2 OD/ml polyA; 0.2 OD/ml oligo(dT)12-18; and 40 μCi/ml ^3 H-dTTP (76 Ci/mmol, DuPont) and incubated 2 hr at 37° C. 5 μl of the reaction mixture was then spotted onto the DE 81 (Whatman) paper. Paper was air dried and washed 5 times with 5% Na2 HPO4, followed by rinsing with distilled water. After air drying, paper was put on a Flexi Filter plate (Packard), covered with scintillation fluid and counted in a Top Count Microplate Counter (Packard). Results are expressed as counts per minute in 1 ml of supernatant (cpm/ml).

reverse transcriptase = molecular target: T1, reverse transcriptase (HIV-1 M:B_HXB2R, UniProt P04585); assay: Inhibition of reverse transcriptase; type: biochemical; conditions: data not shown
T1 construct: infection experiments used HIV-1 ADA virus supernatant

[2] = Table IV; measured in a 25 gr mouse
Description: Standard addition curves for each test compound were constructed by adding increased amounts of drug to mouse or human A^+ plasma (Long Island Blood Services; Melville, N.Y.). […] The eluted sample was reduced to dryness in a rotary evaporator and resuspended in 1.0 ml Buffer A.
Female ND4 Swiss Webster mice (21-24 g) were obtained from Harlan Sprague Dawley (Indianapolis, Ind.) and randomly placed in groups of five in cages with free access to food and water. […] The other CNI compounds were administered intraperitoneally or by oral gavage as a solution in water titrated with sufficient HCl to dissolve the drug. At various time points, ranging from 5 min to 4 days, a single group of animals was euthanized by carbon dioxide inhalation and bled by cardiac puncture using heparin as an anticoagulant. The blood from the five mice in the group was pooled and centrifuged at 14000×g for 10 min. The volume of plasma was measured, and equal volume of Buffer A added, and the mixture extracted and analyzed as described above, except that the dried eluates were resuspended in 200 μl Buffer A and 100 μl was injected onto the high performance liquid chromatography (HPLC) system.
The area under the plasma concentration-time curve (AUC) was determined, and bioavailability was measured as AUCoral /AUCi.p.. […] The volume of distribution (VD) was calculated as dose/B, and the total clearance rate (Cltot) calculated as β*VD. Cmax and tmax are the maximal plasma concentration and time of this measurement, respectively.

HIV-1ADA [3] = assay: RT activity in supernatant of HIV-1ADA-infected monocytes; type: cell-based, HIV-1ADA in primary human monocytes
Description: The cultures were treated with none or between 10^-12 and 10^-6M Compound No. 2 and, simultaneously with the beginning of treatment, the cells were exposed to the monocyte-tropic strain HIV-1ADA about 0.01 TCID50 /cell (1 ng p24/10^6 cells) for 2 hours. Samples were withdrawn at days 3, 6, 10, 14 and 17 after infection and assayed for reverse transcription activity.
FIGS. 2B and 2C show the effects of various concentrations of Compound No. 2 on the production of HIV-1 in monocyte cultures not supplemented with M-CSF. In these studies MOI, as determined by concentration of p24 antigen was; FIG. 2B (8 ng/10^6 cells) and FIG. 2C (0.8 ng/10^6 cells).
Primary human monocytes were obtained from peripheral blood by Ficoll-Hypaque centrifugation and adherence to plastic as described previously. Gartner S. P., et al., 1986, Science 233:215. Briefly, after Ficoll-Hypaque (Pharmacia) separation, PBMCs were washed 4 times with DMEM (the last wash was done at 800 rpm to remove platelets) and resuspended in monocyte culture medium [DMEM supplemented with 1 mM glutamine, 10% heat-inactivated human serum, 1% penicillin+streptomycin mixture (Sigma)] at a density of 6×10^6 cells/ml. Cells were seeded in 24-well plates (1 ml per well) and incubated for 2 h at 37° C., 5% CO2. Following incubation, cells were washed 3 times with DMEM to remove non-adherent cells and incubation was continued in monocyte culture medium supplemented with 250 U/ml human M-CSF (Sigma). Cells were allowed to mature for 7 days prior to infection with the monocyte-tropic strain, HIV-1ADA. Nuovo, G. J., et al., 1992, Diagn. Mol. Pathol. 1:98. Two hours after infection, cells were washed with medium and cultured in RPMI supplemented with 10% human serum. […]
Macrophage-tropic strain HIV-1ADA was amplified in primary human monocytes and concentrated to produce stock with TCID50 of about 10^5 /ml. The concentration of HIV-1 was determined by immunoassay of viral p24, concentration; using a conversion factor of […].
as §1

In the case of `CC(=O)c1cc(Nc2cc(C)[n+](C)c(N)n2)cc(C(C)=O)c1.[I-]` [Compound No. 2, 2-amino-4-(3,5-diacetylphenyl)amino-1,6-dimethylpyrimidinium iodide], the “reduction in viral output” value (HIV-1ADA [1]; 1 and 10 μM, lower MOI (1 ng p24/10^6 cells), FIG. 3B) is reported as ~2 fold, the “anti-viral effect on activated PBLs / replicating cells” value (HIV-1ADA [1]; actively dividing cell populations, FIG. 3) is reported as “much less expressed in these actively dividing cell populations; also recorded: No anti-viral effect was detected” and the “effect on viral production” value (HIV-1ADA [1]; up to 10 μM, higher MOI (10 ng p24/10^6 cells), FIG. 3A) is reported as “only a marginal effect on viral production”. For the same molecule, the “inhibition of reverse transcriptase” value (reverse transcriptase) was “does not inhibit reverse transcriptase”, the Clearance [2] was 35.35 mL/min and the IC50 (HIV-1ADA [3]; Homo sapiens, Monocyte, FIG. 2A, M-CSF, 1 ng p24/10^6 cells) was 0.1 to 1 nM. The IC50 (HIV-1ADA [3]; Homo sapiens, Monocyte, FIG. 2B, without M-CSF, 8 ng p24/10^6 cells) was ~10 nM, the IC50 (HIV-1ADA [3]; Homo sapiens, Monocyte, FIG. 2C, without M-CSF, 0.8 ng p24/10^6 cells) was < 1 nM and the IC50 (HIV-1ADA [3]; Human immunodeficiency virus 1, Monocyte, FIG. 2, HIV-1 replication in monocytes, estimated) was 0.1 to 1 nM.
